The values that follow come from patent publication US20220380829A1, “Method of Diagonosizing Pathogens and their Antimicrobial Susceptibility” (HANGZHOU DIAN MEDICAL LABORATORY CO., LTD., priority 2019, published 2022).

For the assay, the system named is Candida tropicalis. Put plainly: Broth microdilution (M27-A3, M27-S4), gold standard culture-based AST. It is filed as cell-based. For orientation: Broth dilution looks for growth in wells or tubes with falling amounts of substance.

Take `OC(Cn1cncn1)(Cn1cncn1)c1ccc(F)cc1F` [FLU]: the “Resistance profiles by broth microdilution (the gold standard)” value by setting is: (blind-1) “R”; (blind-2) “S”; (blind-3) “R”; (blind-4) “R”; (blind-5) “S”; (blind-6) “S”.
